Assay results published in patent US10329304B2, “Compounds and methods for inhibition of hedgehog signaling and phosphodiesterase” (Vanderbilt University, priority 2014, dated 2019).
Like-named read-outs stand apart in the source and are kept apart here.

How the values were obtained:
[1] = Lipophilic efficiency (LipE = pEC50 − cLogP) and cLogP
Protocol: Therefore, we prioritized phenotypic analog evaluation in the Gli-responsive luciferase reporter line TM3-Gli-Luc stimulated with 20 nM Smo agonist (SAG) while concurrently monitoring non-specific cellular toxicity. Additionally, lipophilic efficiency (LipE), a concurrent readout of a compound's potency (pEC50) and lipophilicity (cLogP) derived by subtracting the latter from the former, was utilized to optimize solubility properties (Table 12B), allowing for straightforward tracking of compounds with improvements in both parameters.

[2] = test system: Hedgehog signaling (TM3-Gli-Luc); test: TM3-Gli-Luc luciferase reporter assay stimulated with 20 nM SAG; format: cell-based
Protocol: TM3-Gli-Luc cells were maintained on sterile 0.1% gelatin (from porcine skin, Type A, prepared in MilliQ water, autoclaved, then sterile-filtered) in 1:1 Dulbecco's Modified Eagle Medium (DMEM)/F12 supplemented with 5% horse serum, 2.5% fetal bovine serum (FBS), and 15 mM HEPES, hereafter referred to as TM3 Culture Medium. For small molecule evaluation, TM3-Gli-Luc cells were assayed on 0.1% gelatin in DMEM/F12 supplemented with 2.5% FBS and 15 mM HEPES, hereafter referred to as TM3Luc Medium. Sufu^−/− cells were maintained in DMEM supplemented with 4.5 g/L D-glucose, L-glutamine, 25 mM HEPES, and 10% FBS, hereafter referred to as D10 FBS. For small molecule evaluation, Sufu^−/− cells were assayed in DMEM supplemented with 4.5 g/L D-glucose, L-glutamine, 25 mM HEPES, and 0.5% FBS, hereafter referred to as D0.5 FBS. All cells were cultured at 37° C. with a 5% CO2 atmosphere.
On the day of cell plating, 96-well plates were coated with 50 μL/well of sterile 0.1% gelatin for 5 minutes then aspirated and replaced with 50 μL/well of TM3 Culture Medium. TM3-Gli-Luc cells were seeded at a density of 5,000 cells/well in TM3 Culture Medium and incubated for 24 hours. A master mix of 20 nM SAG in TM3Luc Medium was prepared, and small molecule solutions were prepared by adding the desired amount of compound from 10 mM DMSO stock to TM3Luc Medium containing 20 nM SAG. Negative control was prepared by adding an equi-volume amount of DMSO as compared to small molecule treated conditions to TM3Luc Medium not containing SAG. Cell plating medium was aspirated and replaced with 100 μL/well of prepared small molecule-containing media, and plates were incubated for 48 hours before proceeding to luciferase activity and cell viability reading.
TM3Luc Medium from compound treated plates was aspirated and replaced with 82 μL/well of Glo Lysis Buffer (Promega, Madison, Wis., USA), and plates were shaken at 300 rpm and room temperature for 12 minutes. Lysate was split between two white 96-well plates, 45 μL/well and 25 μL/well for luciferase reading and cell viability respectively. For luciferase activity monitoring, 45 μL/well of Steady Glo (Promega, Madison, Wis., USA) was added to 45 μL/well of cell lysate, incubated at room temperature for 5 minutes, then luminescence was measured on a Turner Biosystems Modulus Microplate Reader (Sunnyvale, Calif., USA) with an integration time of 0.5 seconds. For cell viability measurement, 25 μL/well of Cell Titer Glo (Promega, Madison, Wis., USA) (prepared by 1:10 dilution with Glo Lysis Buffer) was added to 25 μL/well of cell lysate, incubated at room temperature for 5 minutes, then luminescence was measured as above.
Luciferase activity data (Steady Glo) was divided by corresponding cell viability data (Cell Titer Glo) to arrive at a live cell number-normalized luciferase activity reading. The average of negative control data (DMSO treated) was subtracted from all wells, and percent activity was calculated by dividing all wells by the positive control (SAG treated) average. […] At least two independent assays tested on separate days were averaged to provide EC50±standard error of the mean.

PDE4D = PDE4D (Homo sapiens, UniProt Q08499); test: PDE4 inhibition assay (PDE4D IC50); format: biochemical; settings: Table 8; read-out: PDE4 Inhibition Assay (IC50)
Sequence of PDE4D (Q08499 1-673 isoform Q08499-2): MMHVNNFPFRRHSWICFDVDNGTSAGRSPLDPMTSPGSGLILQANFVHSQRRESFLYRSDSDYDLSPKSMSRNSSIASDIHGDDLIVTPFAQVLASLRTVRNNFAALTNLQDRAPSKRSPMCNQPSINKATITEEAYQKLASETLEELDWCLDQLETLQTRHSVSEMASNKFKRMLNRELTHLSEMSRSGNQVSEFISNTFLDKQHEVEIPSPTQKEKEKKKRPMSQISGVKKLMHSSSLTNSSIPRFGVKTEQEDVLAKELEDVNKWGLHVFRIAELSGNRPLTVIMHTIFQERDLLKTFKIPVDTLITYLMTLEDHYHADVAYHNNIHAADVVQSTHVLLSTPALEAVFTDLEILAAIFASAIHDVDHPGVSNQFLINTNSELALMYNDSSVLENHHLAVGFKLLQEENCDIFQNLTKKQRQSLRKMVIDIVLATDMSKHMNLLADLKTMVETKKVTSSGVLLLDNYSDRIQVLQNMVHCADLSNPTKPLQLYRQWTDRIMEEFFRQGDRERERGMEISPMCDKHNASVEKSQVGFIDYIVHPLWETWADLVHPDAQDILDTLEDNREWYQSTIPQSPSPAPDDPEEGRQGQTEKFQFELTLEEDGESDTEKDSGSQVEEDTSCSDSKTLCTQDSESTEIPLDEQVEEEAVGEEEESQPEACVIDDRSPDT
Protocol: (§1) In vitro PDE profiling and dose-response assays were performed by BPS Biosciences (San Diego, Calif.). Kinetic Mechanism of inhibition studies were conducted by Millipore (St. Louis, Mo.). In brief, the PDE assay measures fluorescent polarization of FAM-AMP as FAM-cAMP is converted to FAM-AMP by PDE), the binding agent.
(§2) A series of dilutions of the test compound were prepared with 10% DMSO in assay buffer and 5 μl of the dilution was added to a 50 μl reaction so that the final concentration of DMSO is 1% in all of reactions. All of the PDE enzymatic reactions were conducted in duplicate at room temperature for 60 minutes in a 50 μl mixture containing PDE assay buffer (10 mM Tris-HCl, pH7.4, 10 mM MaCl2, 0.05% Tween 20), 100 nM FAM-cAMP, a PDE enzyme and a test compound.
(§3) After the enzymatic reaction, 100 μl of a binding solution (1:100 dilution of the binding agent, which contains the nano beads that recognize FAM-AMP, with the binding agent diluent) was added to each reaction and the reaction was performed at room temperature for 60 minutes. Fluorescence intensity was measured at an excitation of 485 nm and an emission of 528 nm using a Tecan Infinite M1000 microplate reader. Assays done by Millipore were conducted similarly with changes noted below:
Hedgehog signaling inhibition and PDE4 inhibition of various compounds disclosed herein was assayed as described herein above.

[3] = test system: Hedgehog signaling (Gli-Luc reporter); test: Hh Gli-Luciferase reporter assay in Shh-Light2 cells; format: cell-based, mouse; settings: for EC50: Mus musculus, Shh Light2
Protocol: For Hh signaling assays, Shh-Light2 cells stably transfected with Gli-Luciferase reporter construct were used along with Shh-conditioned media, as previously described^7. Alternatively, 3 μM purmorphamine or 20 nM Smoothened agonist (SAG) (Santa Cruz Biotechnology, Santa Cruz, Calif.) was used to induce Hh signaling. Reporter cells were seeded in 96-well plates and incubated overnight with the various concentrations of eggmanone and Shh-conditioned media. To assess the effects of overexpression of Gli-2, PDE4D3 and DN-PDE4D3 on Hh signaling, mammalian expression vectors containing these constructs were transfected into Shh-Light2 cells in 96-well plates using Fugene6 (Roche), according to manufacturer's instructions. The transfected or Shh-stimulated cells were incubated overnight with the various concentrations of compound. The cells were then lysed, and cell extracts were subjected to Steady-Glo luciferase assay (Promega) according to manufacturer's instructions. The results were normalized to cell titer, as determined using Cell Titer-Glo luminescence assay (Promega).

PDE4D3 = target: T1, PDE4D3 (Homo sapiens, UniProt Q08499); test: In vitro PDE assay; format: biochemical
T1 construct: purchased BPS Biosciences (San Diego, Calif.); kinetic studies by Millipore (St. Louis, Mo.)
T1 sequence (Q08499 1-673 isoform Q08499-2): as above
Protocol: as §1, §2
as §3, with “below: […]” for “below:”

Gli1 mRNA = test: Hh % Inh.: SAG-induced Gli1 expression in C3H10T½ cells (qPCR); format: cell-based; settings: Mus musculus, C3H 10T1/2, SAG-induced (100 nM), 24 hours
Protocol: Compounds are dosed from 10 mM DMSO stock solutions, and mRNA is isolated after 24 hours of compound treatment. mRNA is reverse transcribed to produce cDNA which is quantified by quantitative polymerase chain reaction (qPCR) in triplicate and levels are normalized to GAPDH levels. Data is presented as percent inhibition compared to positive control (SAG).

[4] = Calculated as pEC50 - cLogP, Molinspiration Cheminformatics
[5] = 20 nM SAG, mean ± standard error of the mean, read-out: TM3-Gli-Luc EC50
[6] = calculated as pEC50 - cLogP (Molinspiration Cheminformatics), Table 13
[7] = TM3-Gli-Luc reporter line stimulated with 20 nM SAG, mean ± SEM, Table 13, read-out: TM3-Gli-Luc EC50
[8] = Table 8, read-out: Hh Inhibition Assay (EC50)
[9] = Table 9B, read-out: Shh Light2 Luc EC50

Row | Structure (SMILES) | IC50 (PDE4D) | EC50 [3, 8] | further results
1 | C=C(C)Cn1c(SCC(=O)c2cccs2)nc2sc3c(c2c1=O)CCNC3 [Formula 10a] |  |  | LipE [1, 4]: 1.45; EC50 [2, 5]: 6.4 ± 0.33 µM
2 | O=C(CSc1nccc(=O)n1C1CC1)c1ccccc1 [Formula 14c] |  |  | LipE [1, 6]: 2.46; Hh inhibitory activity / potency in words ([2]; 20 nM SAG): potency improvements over EGM1; EC50 [2, 7]: 1.16 ± 0.39 µM
3 | C=C(C)Cn1c(SCC(=O)c2cccs2)nccc1=O [Formula 19a] |  |  | LipE [1, 6]: 2.06; EC50 [2, 7]: 0.931 ± 0.11 µM
4 | C=C(C)Cn1c(SCC(=O)c2cccs2)nc2sc3c(c2c1=O)CCCC3 [Formula (1), 3-(2-methylallyl)-2-((2-oxo-2-(thiophen-2-yl)ethyl)thio)-5,6,7,8-tetrahydrobenzo[4,5]thieno[2,3-d]pyrimidine-4(3H)-one] | 0.893 µM | 1.5 µM | 
5 | C=CCn1c(SCC(=O)c2cccs2)nc2sc3c(c2c1=O)CCCC3 [Formula (2)] | > 100 µM |  | Hh Inhibition Assay (EC50, μM) ([3]; Table 8): Inactive
6 | C=C(C)Cn1c(SCC(=O)c2ccccc2)nc2sc3c(c2c1=O)CCCC3 [Formula (3)] | 1.27 µM | 3 µM | 
7 | C=C(C)Cn1c(SCC(=O)N2CCCC[C@H]2C)nc2sc3c(c2c1=O)CCCC3 [Formula (5)] | 1.2 µM | 2.5 µM | 
8 | C=CCn1c(SCC(=O)N2CCCC[C@H]2C)nc2sc3c(c2c1=O)CCCC3 [Formula (6)] | 7.6 µM | 5 µM | 
9 | C=C(C)Cn1c(SCC(=O)N2CCN(C)CC2)nc2sc3c(c2c1=O)CCCC3 [Formula (7)] | 8.5 µM | 20 µM | 
10 | C=CCn1c(SCC(=O)N2CCN(C)CC2)nc2sc3c(c2c1=O)CCCC3 [Formula (8)] | 2.08 µM | 10 µM | 
11 | C=C(C)Cn1c(SCC(=O)c2nccs2)nc2sc3c(c2c1=O)CCCC3 [Formula (9)] | 6.4 µM | 7.5 µM | 
12 | C=CCn1c(SCC(=O)c2nccs2)nc2sc3c(c2c1=O)CCCC3 [Formula (10)] | 27 µM |  | Hh Inhibition Assay (EC50, μM) ([3]; Table 8): Inactive
13 | C=C(C)Cn1c(SCC(=O)c2ccncc2)nc2sc3c(c2c1=O)CCCC3 [Formula (11)] | 16 µM | 10 µM | 
14 | CCn1c(SCC(=O)c2ccc(Cl)cc2)nc2sc3c(c2c1=O)CCC3 [HI113] |  |  | EC50 [3, 9]: > 20 µM; IC50 (PDE4D3; Table 9B): 4.1 µM
15 | C=CCn1c(SCC(=O)c2ccc(OC)cc2)nc2sc3c(c2c1=O)CCCC3 [HI798] |  |  | EC50 [3, 9]: > 10 µM; IC50 (PDE4D3; Table 9B): > 100 µM
16 | C=C(C)Cn1c(SCC(=O)c2cccs2)nc2sc3ccccc3c2c1=O [JEH-4-006] |  |  | inhibition at 1 µM (Gli1 mRNA; 1 pM [sic], read-out: C3H10T1/2 qPCR, Gh1 mRNA % Inh., 1 pM): 14.3%; inhibition at 10 µM (Gli1 mRNA; 10 pM [sic], read-out: C3H10T1/2 qPCR, Gh1 mRNA % Inh., 10 pM): 79.3%; EC50 (Gli1 mRNA; read-out: C3H10T1/2 qPCR, Gh1 mRNA EC50): 4.3 µM; EC50 ([2]; Table 9A, read-out: TM3 G8 Luciferase EC 50): > 50 µM; IC50 (PDE4D3; Table 9A): > 100 µM
17 | CS(=O)(=O)c1ccc(C(=O)Nc2ccc(Cl)c(-c3ccccn3)c2)c(Cl)c1 [Vismodegib, reference compound] |  |  | LipE [1, 4]: 4.33; Hh inhibitory activity / potency in words ([2]; 20 nM SAG): displayed expected potency; Hh inhibitory activity / potency in words ([2]; 20 nM SAG, listed as 1): low-nanomolar; EC50 [2, 5]: 0.013 ± 0.004 µM

Now from value to compound, other results behind:

Row | IC50 (PDE4D) | EC50 [3, 8] | Structure (SMILES) | further results
18 | 8.2 µM | 15 µM | C=CCn1c(SCC(=O)c2ccncc2)nc2sc3c(c2c1=O)CCCC3 [Formula (12)] | 
19 | 3.9 µM | 5 to 20 µM | C=C(C)Cn1c(SCC(=O)N2CCOCC2)nc2sc3c(c2c1=O)CCCC3 [Formula (13)] | 
20 | > 100 µM |  | C=CCn1c(SCC(=O)N2CCOCC2)nc2sc3c(c2c1=O)CCCC3 [Formula (14)] | Hh Inhibition Assay (EC50, μM) ([3]; Table 8): Inactive
21 | 23 µM | 15 µM | C=C(C)Cn1c(SCC(=O)c2ccccn2)nc2sc3c(c2c1=O)CCCC3 [Formula (15)] | 
22 | 25 µM | 20 µM | C=CCn1c(SCC(=O)c2ccccn2)nc2sc3c(c2c1=O)CCCC3 [Formula (16)] | 
23 | 46 µM |  | C=C(C)Cn1c(SCC(=O)N2Cc3ccccc3C2)nc2sc3c(c2c1=O)CCCC3 [Formula (17)] | Hh Inhibition Assay (EC50, μM) ([3]; Table 8): Inactive
24 | > 100 µM |  | C=CCn1c(SCC(=O)N2Cc3ccccc3C2)nc2sc3c(c2c1=O)CCCC3 [Formula (18)] | Hh Inhibition Assay (EC50, μM) ([3]; Table 8): Inactive
25 | > 100 µM |  | C=C(C)Cn1c(SCC(=O)c2ccc(-c3ccccc3)cc2)nc2sc3c(c2c1=O)CCCC3 [Formula (19)] | Hh Inhibition Assay (EC50, μM) ([3]; Table 8): Inactive
